Experimental data as given in US20220112479A1, “COMPOUNDS STABILIZING AMYLASES IN LIQUIDS” (BASF SE, priority 2018, published 2022).

How the values were obtained:
Type in all cases: biochemical
Conditions in all cases: storage at 37° C.
[1] = target: T1, Savinase Ultra 16.0L (Lederbergia lenta, UniProt P29600); assay: protease storage stability in liquid formulation (Suc-AAPF-pNA substrate)
T1 construct: purchased Sigma-Aldrich
T1 sequence (P29600 1-269): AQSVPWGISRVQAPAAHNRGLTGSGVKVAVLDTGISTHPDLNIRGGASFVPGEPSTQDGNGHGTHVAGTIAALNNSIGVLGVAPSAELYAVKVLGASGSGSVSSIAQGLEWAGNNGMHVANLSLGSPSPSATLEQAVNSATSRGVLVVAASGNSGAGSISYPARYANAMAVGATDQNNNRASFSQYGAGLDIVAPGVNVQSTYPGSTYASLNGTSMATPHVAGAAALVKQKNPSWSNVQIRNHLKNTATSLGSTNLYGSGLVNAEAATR
Experimental: Base test formulations were manufactured by making base formulations I to V by mixing the components according to Table 1.
Protease used: (S) Savinase Ultra 16.0L (CAS-No. 9014-01-1, EC-No. 232-752-2) was purchased from Sigma-Aldrich
The respective component (a) or comparative compound was added, if applicable, to the respective base formulation in amounts as indicated in Table 1.
The amount of protease as provided in Table 1 refers to active protein.
Water was added to accomplish the balance to 100.
Protease activity at certain points in time as indicated in Table 3 was be determined by employing Succinyl-Ala-Ala-Pro-Phe-p-nitroanilide (Suc-AAPF-pNA, short AAPF) as substrate. pNA is cleaved from the substrate molecule by proteolytic cleavage, resulting in release of yellow color of free pNA which was determined by measuring […]. Measurements were done at 20° C.
The proteolytic activity values provided in Table 3 were calculated referring to the value determined in the reference formulation at the time 0.
The nomenclature of formulations is as follows: the Roman number before the full stop characterizes the base formulation, the Arabian number the type of salt (A.#inventive salt (component (a)); B.# comparative compound). Zero (“0”): no salt, but diethylene glycol.

[2] = test system: Amy1=Stainzyme; assay: amylase storage stability in liquid formulation (pNP release from Ethyliden-blocked-pNPG7); set-up: key: % of activity in reference formulation at time 0
Experimental: (§1) The storage stability of amylase was assessed at 37° C. Base test formulations were manufactured by making base formulations I to V by mixing the components according to Table 1. Amylases used: Amy1=Stainzyme, Amy2=Amplify, Amy3=Stainzyme Plus L (12L) The respective component (a) or comparative compound was added, if applicable, to the respective base formulation in amounts as indicated in Table 1. The amount of amylase as provided in Table 1 refers to active protein. Water was added to accomplish the balance to 100. […] Amylase activity at certain points in time as indicated in Table 2 was measured quantitatively by the release of the chromophore para-nitrophenol (pNP) from the substrate ([…]-blocked-pNPG7, Roche Applied Science 10880078103). The alpha-amylase degrades the substrate into smaller molecules and α-glucosidase (Roche Applied Science 11626329103), which is present in excess compared to the amylase, process these smaller products until pNP is released; the release of pNP, measured via an increase of absorption at 405 nm, is directly proportional to the amylase activity of the sample. Amylase standard: […] 120 L (Sigma 3403). […] The amylolytic activity values provided were calculated referring to the value determined in the reference formulation at the time 0. The nomenclature of formulations is as follows: the Roman number before the full stop characterizes the base formulation, the Arabian number the type of compound (A.# compound according to invention (component (a)); B.# comparative compound).

[3] = test system: Amy2=Amplify; assay: as above; set-up: key: % of activity in reference formulation at time 0
Experimental: as §1

[4] = base formulation I., 1.5 wt % component (a), 3 d
[5] = base formulation I., 1.5 wt % component (a), 7 d
[6] = base formulation I., 1.5 wt % component (a), 14 d
[7] = base formulation I., 1.5 wt % component (a), 21 d
[8] = base formulation I., 1.5 wt % component (a), 28 d
[9] = base formulation I., 1.5 wt % component (a), 42 d
[10] = base formulation I., 1.5 wt % component (a), T0
[11] = base formulation III., 1.5 wt % component (a), 3 d
[12] = base formulation III., 1.5 wt % component (a), 7 d
[13] = base formulation III., 1.5 wt % component (a), 14 d
[14] = base formulation III., 1.5 wt % component (a), 21 d
[15] = base formulation III., 1.5 wt % component (a), 28 d
[16] = base formulation III., 1.5 wt % component (a), 42 d
[17] = base formulation III., 1.5 wt % component (a), T0
[18] = base formulation IV., 2.0 wt % component (a), 3 d
[19] = base formulation IV., 2.0 wt % component (a), 7 d
[20] = base formulation IV., 2.0 wt % component (a), 14 d
[21] = base formulation IV., 2.0 wt % component (a), 21 d
[22] = base formulation IV., 2.0 wt % component (a), 28 d
[23] = base formulation IV., 2.0 wt % component (a), 42 d
[24] = base formulation IV., 2.0 wt % component (a), T0
[25] = base formulation V., 2.0 wt % component (a), 3 d
[26] = base formulation V., 2.0 wt % component (a), 7 d
[27] = base formulation V., 2.0 wt % component (a), 14 d
[28] = base formulation V., 2.0 wt % component (a), 21 d
[29] = base formulation V., 2.0 wt % component (a), 28 d
[30] = base formulation V., 2.0 wt % component (a), 42 d
[31] = base formulation V., 2.0 wt % component (a), T0

## CCOC(=O)CC(O)(CC(=O)OCC)C(=O)OCC [A.1, Triethylcitrate]
[1]; [4]
  protease activity, referring to reference formulation at time 0: 97
[1]; [5]
  protease activity, referring to reference formulation at time 0: 94
[1]; [6]
  protease activity, referring to reference formulation at time 0: 89
[1]; [7]
  protease activity, referring to reference formulation at time 0: 83
[1]; [8]
  protease activity, referring to reference formulation at time 0: 79
[1]; [9]
  protease activity, referring to reference formulation at time 0: 67
[1]; [10]
  protease activity, referring to reference formulation at time 0: 100
[1]; base formulation II., 1.5 wt % component (a), 3 d
  protease activity, referring to reference formulation at time 0: 99
[1]; base formulation II., 1.5 wt % component (a), 7 d
  protease activity, referring to reference formulation at time 0: 96
[1]; base formulation II., 1.5 wt % component (a), 14 d
  protease activity, referring to reference formulation at time 0: 90
[1]; base formulation II., 1.5 wt % component (a), 21 d
  protease activity, referring to reference formulation at time 0: 85
[1]; base formulation II., 1.5 wt % component (a), 28 d
  protease activity, referring to reference formulation at time 0: 80
[1]; base formulation II., 1.5 wt % component (a), 42 d
  protease activity, referring to reference formulation at time 0: 69
[1]; base formulation II., 1.5 wt % component (a), T0
  protease activity, referring to reference formulation at time 0: 100
[1]; [11]
  protease activity, referring to reference formulation at time 0: 99
[1]; [12]
  protease activity, referring to reference formulation at time 0: 93
[1]; [13]
  protease activity, referring to reference formulation at time 0: 88
[1]; [14]
  protease activity, referring to reference formulation at time 0: 85
[1]; [15]
  protease activity, referring to reference formulation at time 0: 74
[1]; [16]
  protease activity, referring to reference formulation at time 0: 67
[1]; [17]
  protease activity, referring to reference formulation at time 0: 100
[1]; [18]
  protease activity, referring to reference formulation at time 0: 96
[1]; [19]
  protease activity, referring to reference formulation at time 0: 92
[1]; [20]
  protease activity, referring to reference formulation at time 0: 86
[1]; [21]
  protease activity, referring to reference formulation at time 0: 80
[1]; [22]
  protease activity, referring to reference formulation at time 0: 72
[1]; [23]
  protease activity, referring to reference formulation at time 0: 65
[1]; [24]
  protease activity, referring to reference formulation at time 0: 98
[1]; [25]
  protease activity, referring to reference formulation at time 0: 94
[1]; [26]
  protease activity, referring to reference formulation at time 0: 90
[1]; [27]
  protease activity, referring to reference formulation at time 0: 85
[1]; [28]
  protease activity, referring to reference formulation at time 0: 81
[1]; [29]
  protease activity, referring to reference formulation at time 0: 75
[1]; [30]
  protease activity, referring to reference formulation at time 0: 65
[1]; [31]
  protease activity, referring to reference formulation at time 0: 99
[2]; [4]
  amylase activity, referring to reference formulation at time 0: 98
[2]; [5]
  amylase activity, referring to reference formulation at time 0: 93
[2]; [6]
  amylase activity, referring to reference formulation at time 0: 88
[2]; [7]
  amylase activity, referring to reference formulation at time 0: 80
[2]; [8]
  amylase activity, referring to reference formulation at time 0: 74
[2]; [9]
  amylase activity, referring to reference formulation at time 0: 61
[2]; [10]
  amylase activity, referring to reference formulation at time 0: 100
[2]; [18]
  amylase activity, referring to reference formulation at time 0: 96
[2]; [19]
  amylase activity, referring to reference formulation at time 0: 92
[2]; [20]
  amylase activity, referring to reference formulation at time 0: 88
[2]; [21]
  amylase activity, referring to reference formulation at time 0: 83
[2]; [22]
  amylase activity, referring to reference formulation at time 0: 73
[2]; [23]
  amylase activity, referring to reference formulation at time 0: 61
[2]; [24]
  amylase activity, referring to reference formulation at time 0: 98
[3]; [11]
  amylase activity, referring to reference formulation at time 0: 98
[3]; [12]
  amylase activity, referring to reference formulation at time 0: 95
[3]; [13]
  amylase activity, referring to reference formulation at time 0: 91
[3]; [14]
  amylase activity, referring to reference formulation at time 0: 86
[3]; [15]
  amylase activity, referring to reference formulation at time 0: 78
[3]; [16]
  amylase activity, referring to reference formulation at time 0: 68
[3]; [17]
  amylase activity, referring to reference formulation at time 0: 100
[3]; [25]
  amylase activity, referring to reference formulation at time 0: 96
[3]; [26]
  amylase activity, referring to reference formulation at time 0: 91
[3]; [27]
  amylase activity, referring to reference formulation at time 0: 87
[3]; [28]
  amylase activity, referring to reference formulation at time 0: 80
[3]; [29]
  amylase activity, referring to reference formulation at time 0: 73
[3]; [30]
  amylase activity, referring to reference formulation at time 0: 62
[3]; [31]
  amylase activity, referring to reference formulation at time 0: 98
